Reference: US6974797B2, “Cross-linked glycopeptide-cephalosporin antibiotics” (Theravance, Inc., priority 2001, dated 2005)
In brackets after ≈: the same amount, converted by molar mass.

Key:
[1] = tested on: methicillin-resistant S. aureus strains; assay: Minimal inhibitory concentration (MIC), broth microdilution, individual MRSA strains; type: cell-based, Staphylococcus aureus
Protocol: (§1) Minimal inhibitory concentration (MICs) assays were performed using the broth microdilution method set forth in NCCLS guidelines (see, NCCLS. 2000. Methods for Dilution Antimicrobial Susceptibility Tests for Bacteria That Grow Aerobically; Approved Standard—Fifth Ed., Vol. 20, No. 2). Bacterial strains were obtained from the American Type Tissue Culture Collection (ATCC), Stanford University Hospital (SU), Kaiser Permanente Regional Laboratory in Berkeley (KPB), Massachusetts General Hospital (MGH), the Centers for Disease Control (CDC), the San Francisco Veterans' Administration Hospital (SFVA) or the University of California San Francisco Hospital (UCSF). Vancomycin-resistant enterococci were phenotyped as Van A or Van B based on their sensitivity to teicoplanin. Some vancomycin-resistant enterococci that had been genotyped as Van A, Van B, Van C1 or Van C2 were also obtained from the Mayo Clinic.
In this assay, cryopreserved bacterial cultures of reference and clinical strains were streaked for isolation on appropriate agar medium (i.e., Trypticase Soy Agar, Trypticase Soy Agar with defibrinated sheep erthrocytes, Brain Heart Infusion Agar, Chocolate Agar). Following incubation to allow formation of colonies, these plates were sealed with parafilm and stored refrigerated for up to two weeks. For preparation of assay inocula and to ensure low variability, several colonies from a bacterial isolate cultured on the agar plates were pricked with an inoculating loop and aseptically transferred to Mueller-Hinton Broth (supplemented with divalent cations to required levels based on manufacturer's certification). The broth culture was grown overnight at 35° C., diluted in fresh prewarmed broth and grown to log phase; this is equivalent to a 0.5 MacFarland standard or 1×10^8 colony forming units per milliliter (CFU/mL). Not all cell suspensions, due to species variability, contained 1×10^8 CFU/mL when turbidity is equivalent to the MacFarland standard, therefore acceptable adjustments (based on NCCLS guidelines) were made in dilutions of different bacterial strains. […] The plates were then incubated 18-24 hours at 35° C. The MIC was read visually as the lowest concentration well with no bacterial growth. Bacterial growth is defined as more than three pinpoint colonies, a button of precipitated cells larger than 2 mm in diameter, or obvious turbidity.
Strains routinely tested in the initial screen included methicillin-sensitive Staphylococcus aureus (MSSA), methicillin-resistant Staphylococcus aureus (MRSA), Staphylococcus aureus producing penicillinase, methicillin-sensistive Staphylococcus epidermidis (MSSE), methicillin-resistant Staphylococcus epidermidis (MRSE), vancomycin-sensitive Enterococcus faecium (EFMVS), vancomycin-sensitive Enterococcus faecalis (EFSVS), vancomycin-resistant Enterococcus faecium also resistant to teicoplanin (EFMVR Van A), vancomycin-resistant Enterococcus faecium sensistive to teicoplanin (EFMVR Van B), vancomycin-resistant Enterococcus faecalis also resistant to teicoplanin (EFSVR Van A), vancomycin-resistant Enterococcus faecalis sensitive to teicoplanin (EFSVR Van B), penicillin-sensitive Streptococcus pneumoniae (PSSP) and penicillin-resistant Streptococcus pneumoniae (PSRP). Because of the inability of PSSP and PSRP to grow well in Mueller-Hinton broth, MICs with those strains were determined using either TS broth supplemented with defibrinated blood or Haemophilus test medium.

[2] = tested on: MRSA 33591; assay: In vivo efficacy in neutropenic mice (thigh infection); design: species or system Staphylococcus aureus; conditions: neutropenic male CD-1 mice, MRSA 33591 thigh infection, iv, 24 hours post-treatment
Protocol: Animals (male CD-1 mice, 20-30 g) were acquired from Charles Rivers Laboratories (Gilroy, Calif.) and allowed access to food and water ad libitum. Neutropenia was induced via 200 mg/kg intraperitoneal (IP) injection of cyclophosphamide given four and two days prior to the inoculation of bacteria.
The organism used was either a susceptible or resistant strain of clinically relevant gram positive pathogens, such as methicillin-susceptible Staphylococcus aureus (MSSA 13709) and methicillin-resistant Staphylococcus aureus (MRSA 33591). The bacterial inoculum concentration was ˜10^6 CFU/mL. Animals were lightly anesthetized with isoflurane and […] of the bacterial inoculum was injected into the anterior thigh. One hour after the inoculation, animals were dosed intravenously with vehicle or the appropriate dose of the test compound. At 0 hours and 24 hours post-treatment, the animals were euthanized (CO2 asphyxiation) and the anterior and posterior thigh collected aseptically. The thigh was placed into 10 mL sterile saline and homogenized. Dilutions of the homogenate were plated onto triptic soy agar plates which were incubated overnight. The number of bacterial colonies on a given plate was multiplied by the dilution factor, divided by the thigh weight (in grams) and expressed as log CFU/g. […]

[3] = tested on: Methicillin-resistant S. epidermitis (MRSE) and other coagulase-negative staphylococci; assay: Minimal inhibitory concentration (MIC90), broth microdilution, MRSE and other coagulase-negative staphylococci; type: cell-based, Staphylococcus epidermidis
Protocol: as §1
(§2) In this assay, cryopreserved bacterial cultures of reference and clinical strains were streaked for isolation on appropriate agar medium (i.e., Trypticase Soy Agar, Trypticase Soy Agar with defibrinated sheep erthrocytes, Brain Heart Infusion Agar, Chocolate Agar). Following incubation to allow formation of colonies, these plates were sealed with parafilm and stored refrigerated for up to two weeks. […] The MIC was read visually as the lowest concentration well with no bacterial growth. […]

[4] = tested on: MRSA 33591; assay: Time-kill assay, MRSA 33591; type: cell-based, Staphylococcus aureus
Protocol: (§3) This time-kill assay is a method for measuring the rate of bactericidal activity of a test compound. […] A rapid time-kill is desirable to quickly prevent bacterial colonization and reduce host tissue damage.
(§4) Bacteria were diluted in prewarmed media in shake flasks and incubated with shaking (200 rpm, 35° C.). At 0, 1, 4, and 24 hours samples were withdrawn from the flasks and bacteria were enumerated by plate counting. Subsequent to the initial sampling, a compound to be assayed was added to the shake flask culture. Plate counts at these intervals previous to and following addition of the compound were expressed graphically in a time-kill curve.

[5] = tested on: MSSA 13709; assay: Time-kill assay, MSSA 13709; type: cell-based, Staphylococcus aureus
Protocol: as §3, §4

[6] = tested on: Methicillin-resistant S. aureus (MRSA); assay: Minimal inhibitory concentration (MIC90), broth microdilution, MRSA strains; type: cell-based, Staphylococcus aureus
Protocol: as §1, §2

[7] = 5 wt. % dextrose buffer solution, titrated to pH 3, duplicate sample preparations
Protocol: The aqueous solubility of a compound of this invention was determined using the following procedure. A 5 wt. % dextrose buffer solution at pH 2.2 was prepared by adding 1 mL of 1 N hydrochloric acid (Aldrich) to 99 mL of a 5 wt. % aqueous dextrose solution (Baxter).
A 1 mg/mL stock solution for calibration standards was then prepared by dissolving 1 mg of the test compound in 1 mL of DMSO. This solution was vortexed for 30 seconds and then sonicated for 10 minutes. The stock solution was then diluted with water to prepare calibration standards having the following concentrations: 50, 125, 250, 375 and 500 ug/mL.
Each test compound (30 mg) was weighed into a Millipore non-sterile, Ultrafree-MC 0.1 um filter unit (Millipore UFC30VVOO) and a magnetic stir bar was added to each unit. The 5 wt. % dextrose buffer solution (750 uL) was then added to each unit and these mixtures were vortexed for 5 minutes. The filter units were then placed in an Eppendorf tube rack and the tube rack was placed on top of a magnetic stirrer. […]
The calibration standards and the test samples were analyzed by reverse-phase HPLC using the following conditions:
The solubility of each test sample was calculated by comparing the peak area of the test sample to the calibration curve and multiplying by the dilution factor.

Row | SMILES | MIC ([1]; MRSA 33591) | MIC ([1]; MRSA MED-84) | MIC ([1]; MRSA MED-85) | MIC ([1]; MRSA MED-86) | MIC ([1]; MRSA MED-87) | MIC ([1]; MRSA MED-88) | MIC ([1]; MRSA MED-89) | MIC ([1]; MRSA MED-103) | MIC ([1]; MRSA MED-104) [µg/mL] | MIC ([1]; MRSA MED-107) | MIC ([1]; MRSA MED-110) [µg/mL] | MIC ([1]; MRSA MED-572) | other results
1 | CNC(CC(C)C)C(=O)NC1C(=O)NC(CC(N)=O)C(=O)NC2C(=O)NC3C(=O)NC(C(=O)NC(C(=O)NCCCON=C(C(=O)NC4C(=O)N5C(C(=O)[O-])=C(C[n+]6ccccc6)CSC45)c4nc(N)sc4Cl)c4cc(O)cc(O)c4-c4cc3ccc4O)C(O)c3ccc(c(Cl)c3)Oc3cc2cc(c3OC2OC(CO)C(O)C(O)C2OC2CC(C)(N)C(O)C(C)O2)Oc2ccc(cc2Cl)C1O.Cl.Cl.Cl (centres unmarked) [Compound 1] | ≦0.1 μg/mL | ≦0.1 μg/mL | ≦0.1 μg/mL | ≦0.1 μg/mL | ≦0.1 μg/mL | ≦0.1 μg/mL | ≦0.1 μg/mL | ≦0.1 μg/mL | 0.10 | ≦0.1 μg/mL | 0.20 | ≦0.1 μg/mL | ED50 (dose required to produce 50% of the maximum reduction in thigh titre) [2]: < 0.20 mg/kg; MIC90 (minimum inhibitory concentration for 90% of strains tested) ([3]; MRSE and other coagulase-negative staphylococci, n = 34 strains): <0.1 µg/mL; bactericidal concentration (≧3 log decrease in bacterial cell numbers) ([4]; MRSA 33591, in 4 hours): ≤ 1 μg/mL; bactericidal concentration (≧3 log decrease in bacterial cell numbers) ([5]; MSSA 13709, in 4 hours): ≤ 1 μg/mL; MIC90 (minimum inhibitory concentration for 90% of strains tested) ([6]; n = 53 strains): <0.1 µg/mL; aqueous solubility [7]: > 47.9 mg/mL
2 | CNC(CC(C)C)C(=O)NC1C(=O)NC(CC(N)=O)C(=O)NC2C(=O)NC3C(=O)NC(C(=O)NC(C(=O)NCCCON=C(C(=O)NC4C(=O)N5C(C(=O)[O-])=C(C[n+]6ccccc6)CSC45)c4csc(N)n4)c4cc(O)cc(O)c4-c4cc3ccc4O)C(O)c3ccc(c(Cl)c3)Oc3cc2cc(c3OC2OC(CO)C(O)C(O)C2OC2CC(C)(N)C(O)C(C)O2)Oc2ccc(cc2Cl)C1O (centres unmarked) [Compound 34, reference compound] | 0.17 µg/mL (≈ 0.0872 µM) | 0.29 µg/mL (≈ 0.149 µM) | 0.32 µg/mL (≈ 0.164 µM) | 0.29 µg/mL (≈ 0.149 µM) | 0.49 µg/mL (≈ 0.251 µM) | 0.34 µg/mL (≈ 0.174 µM) | 0.18 µg/mL (≈ 0.0924 µM) | 0.20 µg/mL (≈ 0.103 µM) | 0.58 (≈ 0.298 µM) | 0.34 µg/mL (≈ 0.174 µM) | 0.49 (≈ 0.251 µM) | <0.1 µg/mL | –
3 | CN[C@H](CC(C)C)C(=O)N[C@H]1C(=O)N[C@@H](CC(N)=O)C(=O)N[C@H]2C(=O)N[C@H]3C(=O)N[C@H](C(=O)N[C@H](C(=O)O)c4cc(O)cc(O)c4-c4cc3ccc4O)[C@H](O)c3ccc(c(Cl)c3)Oc3cc2cc(c3O[C@@H]2O[C@H](CO)[C@@H](O)[C@H](O)[C@H]2O[C@H]2C[C@](C)(N)[C@H](O)[C@H](C)O2)Oc2ccc(cc2Cl)[C@H]1O [Vancomycin, vancomycin, reference compound] | – | – | – | – | – | – | – | – | – | – | – | – | ED50 ([2]; Staphylococcus aureus, read-out: ED50 (dose required to produce 50% of the maximum reduction in thigh titre)): 9 mg/kg; MIC90 ([3]; Staphylococcus epidermidis, MRSE, read-out: MIC90 (minimum inhibitory concentration for 90% of strains tested)): 4 µg/mL (≈ 2.76 µM); bactericidal concentration (≧3 log decrease in bacterial cell numbers) ([4]; MRSA 33591, in 24 hours): 4 μg/mL; bactericidal concentration (≧3 log decrease in bacterial cell numbers) ([5]; MSSA 13709, in 24 hours): 4 μg/mL; MIC90 ([6]; Staphylococcus aureus, read-out: MIC90 (minimum inhibitory concentration for 90% of strains tested)): 3 µg/mL (≈ 2.07 µM)
